According to publication PMC5433425 (PeerJ, 2017):
“And” between values parts separate entries of the source, which are not always exact repeats. Equal values may be shown once.

Assays:
[1] = test system: human monocyte-derived macrophages; assay: Cytotoxicity, AlamarBlue method; format: cell-based; details: for AlamarBlue fluorescence 530/25,590/35 (raw well reading): 72 h
Description: (§1) The blood was collected from healthy donors and the peripheral blood mononuclear cells were isolated by Ficoll-Paque Plus (GE Healthcare, Freiburg, Germany) density gradient centrifugation as previously described ([Machado et al., 2016]). […] Fresh medium was added at day 4 post isolation. The effect of the compounds on human monocyte-derived macrophages was evaluated using the AlamarBlue method (Molecular Probes, Life Technologies) ([O’Brien et al., 2000]), and by measuring the release of the lactate dehydrogenase (LDH) into the culture supernatants using the Pierce LDH Cytotoxicity Assay (ThermoFisher Scientific, Waltham, MA, USA) ([Chan, Moriwaki & Rosa, 2013]) according to the manufacturer’s instructions. Briefly, 5 × 10^4 cells were seeded in 96-well microplates treated with the compounds, and incubated at 37 °C with 5% CO2. After 72 h of treatment, the cell viability was assessed. For the AlamarBlue method, the dye was added to each well to a final concentration of 10% and incubated overnight at 37 °C and 5% CO2. The fluorescence was measured with a 540/35 excitation filter and a 590/20 emission filter in a Synergy HT multi-mode microplate reader. The release of LDH from damaged cells into culture supernatants, as an indicator of cytotoxicity, was measured in serum-free medium. Here the amount of enzyme activity correlates to the number of damaged cells. The specific lysis was calculated as follows: (treated cells—spontaneous LDH release)/ (maximum LDH release—spontaneous LDH release) ×100.

[2] = test system: human monocyte-derived macrophages; assay: Cytotoxicity, LDH release; format: cell-based; details: 5 µM; 3 days
Description: as §1

E. coli AG100A = assay: EtBr efflux by real-time fluorometry; details: 20 µM, without glucose
Description: Control tubes with only cells and cells with and without 0.4% glucose were included. The fluorescence was measured in a Rotor-Gene 3000 and the data was acquired every 30 s for 30 min at 37 °C. The efflux activity was quantified by comparing the fluorescence data obtained under conditions that promote efflux (presence of glucose and absence of efflux inhibitor) with the data from the control in which the bacteria are under conditions of no efflux (presence of an inhibitor and no energy source).

[3] = three days of exposure, AlamarBlue

CCCOc1ccc(-c2cc(OCCN3CCNCC3)c3ccccc3n2)cc1 [PQQ4R, 4-(2-(piperazin-1-yl)ethoxy)-2-(4-propoxyphenyl) quinolone]
AlamarBlue fluorescence 530/25,590/35 (raw well reading) ([1]; 0.625 uM): 4943 and 4771 and 4650 | AlamarBlue fluorescence 530/25,590/35 (raw well reading) ([1]; 1.25 uM): 4755 and 4559 and 4604 | AlamarBlue fluorescence 530/25,590/35 (raw well reading) ([1]; 5 uM): 468 and 451 and 495 | AlamarBlue fluorescence 530/25,590/35 (raw well reading) ([1]; 10 uM): 253 and 248 | AlamarBlue fluorescence 530/25,590/35 (raw well reading) ([1]; 20 uM): 256 and 246 and 248 | AlamarBlue fluorescence 530/25,590/35 (raw well reading) ([1]; 40 uM): 254 and 251 and 248 | AlamarBlue fluorescence 530/25,590/35 (raw well reading) ([1]; 80 uM): 254 and 250 and 251 | AlamarBlue fluorescence 530/25,590/35 (raw well reading) ([1]; 160 uM): 259 and 263 and 255 | CC10 [1, 3]: 9.21 µM | CC90 [1, 3]: 12.7 µM | increase in LDH release [2]: 52.45% | EtBr fluorescence (Channel Cycling A.530/585hp) (E. coli AG100A; cycle 1): 5.807 | EtBr fluorescence (Channel Cycling A.530/585hp) (E. coli AG100A; cycle 2): 5.662 | EtBr fluorescence (Channel Cycling A.530/585hp) (E. coli AG100A; cycle 3): 5.478 | EtBr fluorescence (Channel Cycling A.530/585hp) (E. coli AG100A; cycle 4): 5.356 | EtBr fluorescence (Channel Cycling A.530/585hp) (E. coli AG100A; cycle 5): 5.183 | EtBr fluorescence (Channel Cycling A.530/585hp) (E. coli AG100A; cycle 6): 5.1485 | EtBr fluorescence (Channel Cycling A.530/585hp) (E. coli AG100A; cycle 7): 5.025 | EtBr fluorescence (Channel Cycling A.530/585hp) (E. coli AG100A; cycle 8): 4.924 | EtBr fluorescence (Channel Cycling A.530/585hp) (E. coli AG100A; cycle 9): 4.937 | EtBr fluorescence (Channel Cycling A.530/585hp) (E. coli AG100A; cycle 10): 4.811 | EtBr fluorescence (Channel Cycling A.530/585hp) (E. coli AG100A; cycle 11): 4.773 | EtBr fluorescence (Channel Cycling A.530/585hp) (E. coli AG100A; cycle 12): 4.602 | EtBr fluorescence (Channel Cycling A.530/585hp) (E. coli AG100A; cycle 13): 4.634 | EtBr fluorescence (Channel Cycling A.530/585hp) (E. coli AG100A; cycle 14): 4.745 | EtBr fluorescence (Channel Cycling A.530/585hp) (E. coli AG100A; cycle 15): 4.684 | EtBr fluorescence (Channel Cycling A.530/585hp) (E. coli AG100A; cycle 16): 4.629 | EtBr fluorescence (Channel Cycling A.530/585hp) (E. coli AG100A; cycle 17): 4.631 | EtBr fluorescence (Channel Cycling A.530/585hp) (E. coli AG100A; cycle 18): 4.599 | EtBr fluorescence (Channel Cycling A.530/585hp) (E. coli AG100A; cycle 19): 4.579 | EtBr fluorescence (Channel Cycling A.530/585hp) (E. coli AG100A; cycle 20): 4.522 | EtBr fluorescence (Channel Cycling A.530/585hp) (E. coli AG100A; cycle 21): 4.504 | EtBr fluorescence (Channel Cycling A.530/585hp) (E. coli AG100A; cycle 22): 4.567 | EtBr fluorescence (Channel Cycling A.530/585hp) (E. coli AG100A; cycle 23): 4.591 | EtBr fluorescence (Channel Cycling A.530/585hp) (E. coli AG100A; cycle 24): 4.544 | EtBr fluorescence (Channel Cycling A.530/585hp) (E. coli AG100A; cycle 25): 4.652 | EtBr fluorescence (Channel Cycling A.530/585hp) (E. coli AG100A; cycle 26): 4.627 | EtBr fluorescence (Channel Cycling A.530/585hp) (E. coli AG100A; cycle 27): 4.498 | EtBr fluorescence (Channel Cycling A.530/585hp) (E. coli AG100A; cycle 28): 4.577 | EtBr fluorescence (Channel Cycling A.530/585hp) (E. coli AG100A; cycle 29): 4.648 | EtBr fluorescence (Channel Cycling A.530/585hp) (E. coli AG100A; cycle 30): 4.639 | EtBr fluorescence (Channel Cycling A.530/585hp) (E. coli AG100A; cycle 31): 4.704 | EtBr fluorescence (Channel Cycling A.530/585hp) (E. coli AG100A; cycle 32): 4.705 | EtBr fluorescence (Channel Cycling A.530/585hp) (E. coli AG100A; cycle 33): 4.739 | EtBr fluorescence (Channel Cycling A.530/585hp) (E. coli AG100A; cycle 34): 4.713 | EtBr fluorescence (Channel Cycling A.530/585hp) (E. coli AG100A; cycle 35): 4.766 | EtBr fluorescence (Channel Cycling A.530/585hp) (E. coli AG100A; cycle 36): 4.793 | EtBr fluorescence (Channel Cycling A.530/585hp) (E. coli AG100A; cycle 37): 4.818 | EtBr fluorescence (Channel Cycling A.530/585hp) (E. coli AG100A; cycle 38): 4.849 | EtBr fluorescence (Channel Cycling A.530/585hp) (E. coli AG100A; cycle 39): 4.826 | EtBr fluorescence (Channel Cycling A.530/585hp) (E. coli AG100A; cycle 40): 4.8647 | EtBr fluorescence (Channel Cycling A.530/585hp) (E. coli AG100A; cycle 41): 4.7891 | EtBr fluorescence (Channel Cycling A.530/585hp) (E. coli AG100A; cycle 42): 4.94 | EtBr fluorescence (Channel Cycling A.530/585hp) (E. coli AG100A; cycle 43): 5.003 | EtBr fluorescence (Channel Cycling A.530/585hp) (E. coli AG100A; cycle 44): 5 | EtBr fluorescence (Channel Cycling A.530/585hp) (E. coli AG100A; cycle 45): 5.002 | EtBr fluorescence (Channel Cycling A.530/585hp) (E. coli AG100A; cycle 46): 5.099 | EtBr fluorescence (Channel Cycling A.530/585hp) (E. coli AG100A; cycle 47): 5.05 | EtBr fluorescence (Channel Cycling A.530/585hp) (E. coli AG100A; cycle 48): 5.085 | EtBr fluorescence (Channel Cycling A.530/585hp) (E. coli AG100A; cycle 49): 5.044 | EtBr fluorescence (Channel Cycling A.530/585hp) (E. coli AG100A; cycle 50): 5.1253 | EtBr fluorescence (Channel Cycling A.530/585hp) (E. coli AG100A; cycle 51): 5.103 | EtBr fluorescence (Channel Cycling A.530/585hp) (E. coli AG100A; cycle 52): 5.071 | EtBr fluorescence (Channel Cycling A.530/585hp) (E. coli AG100A; cycle 53): 5.2927 | EtBr fluorescence (Channel Cycling A.530/585hp) (E. coli AG100A; cycle 54): 5.227 | EtBr fluorescence (Channel Cycling A.530/585hp) (E. coli AG100A; cycle 55): 5.134 | EtBr fluorescence (Channel Cycling A.530/585hp) (E. coli AG100A; cycle 56): 5.328 | EtBr fluorescence (Channel Cycling A.530/585hp) (E. coli AG100A; cycle 57): 5.315 | EtBr fluorescence (Channel Cycling A.530/585hp) (E. coli AG100A; cycle 58): 5.365 | EtBr fluorescence (Channel Cycling A.530/585hp) (E. coli AG100A; cycle 59): 5.339 | EtBr fluorescence (Channel Cycling A.530/585hp) (E. coli AG100A; cycle 60): 5.32 | EtBr fluorescence (Channel Cycling A.530/585hp) (E. coli AG100A; cycle 61): 5.417
